From US20230057847A1, “GLP2 RECEPTOR AGONISTS AND METHODS OF USE” (The Scripps Research Institute, priority 2019, published 2023)

What was measured:
[1] = test system: chronic DSS-induced colitis model; assay: Chronic DSS-induced colitis in C57BL/6 mice (GLP2-2G-10Nle-1-Ex4-L5A); assay type: in vivo; details: teduglutide 0.5 mg/kg BID
Description: Treatment was administered either subcutaneously (S) or intraperitoneally (IP) either once daily (QD) or twice daily (BID). […] Bodyweight was monitored 3 times a week. […] At day 33, a necropsy was performed, and measurements were taken. These measurement included collecting terminal bleed; dissecting out the small intestine; measuring the length and weight of the small intestine; and recording the length and weight of the empty large intestine.

cyno monkey GLP2R = target: T1, cyno monkey GLP2R (Macaca fascicularis, UniProt G1E7B0); assay: In vitro potency on cyno monkey GLP2R (665/615 ratio); assay type: cell-based
T1 sequence (G1E7B0 1-553): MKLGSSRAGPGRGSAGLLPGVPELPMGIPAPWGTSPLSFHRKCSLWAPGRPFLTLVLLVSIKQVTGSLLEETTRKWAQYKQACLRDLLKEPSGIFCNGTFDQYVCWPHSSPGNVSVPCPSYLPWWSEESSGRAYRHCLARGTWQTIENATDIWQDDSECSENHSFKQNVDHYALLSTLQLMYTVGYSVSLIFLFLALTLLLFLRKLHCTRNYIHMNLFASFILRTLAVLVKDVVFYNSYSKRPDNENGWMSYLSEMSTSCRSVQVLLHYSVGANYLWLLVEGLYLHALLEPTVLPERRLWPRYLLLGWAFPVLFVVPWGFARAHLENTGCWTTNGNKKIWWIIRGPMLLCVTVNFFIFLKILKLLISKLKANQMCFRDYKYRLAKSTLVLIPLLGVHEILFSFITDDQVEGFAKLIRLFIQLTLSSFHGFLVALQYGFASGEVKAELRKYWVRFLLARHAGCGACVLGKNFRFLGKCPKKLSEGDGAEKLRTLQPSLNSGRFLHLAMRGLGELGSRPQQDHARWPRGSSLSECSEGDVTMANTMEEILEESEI

mouse GLP2R = target: T2, mouse GLP2R (Mus musculus, UniProt Q5IXF8); assay: In vitro potency on mouse GLP2R (cAMP, 665/615 ratio); assay type: cell-based; details: read-out: mGLP-2R IC50
T2 sequence (Q5IXF8 1-512): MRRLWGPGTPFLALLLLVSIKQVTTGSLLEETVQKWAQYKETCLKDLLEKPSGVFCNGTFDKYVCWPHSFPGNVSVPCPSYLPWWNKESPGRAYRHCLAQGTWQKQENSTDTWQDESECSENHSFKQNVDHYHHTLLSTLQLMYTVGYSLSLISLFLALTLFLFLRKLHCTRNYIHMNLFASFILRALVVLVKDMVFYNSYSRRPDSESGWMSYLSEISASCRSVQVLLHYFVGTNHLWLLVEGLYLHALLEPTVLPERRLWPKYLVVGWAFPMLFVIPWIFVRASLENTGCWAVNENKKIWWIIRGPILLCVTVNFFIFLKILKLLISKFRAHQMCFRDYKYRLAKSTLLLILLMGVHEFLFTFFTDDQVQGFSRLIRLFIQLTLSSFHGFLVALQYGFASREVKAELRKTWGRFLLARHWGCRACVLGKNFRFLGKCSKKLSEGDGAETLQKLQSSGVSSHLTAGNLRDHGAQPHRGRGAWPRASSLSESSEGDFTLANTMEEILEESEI

[2] = test system: mouse model of acute colitis; assay: DSS-induced acute colitis in C57BL/6 mice (GLP2-2G-10Nle-1K-EX4-K5)
[3] = test system: mouse model of acute colitis; details: in vivo
[4] = test system: mouse model of environmental enteric dysfunction (EED); assay: Weaning undernutrition mouse model of environmental enteric dysfunction (EED); assay type: in vivo, mice
Description: A weaning undernutrition model was used to assess the ability of GLP2-2G-10Nle-1K-EX4-K5 to treat environmental enteric dysfunction (EED). All dams were placed on an isocaloric Northeast Brazil (Regional Basic Diet—RBD), which was moderately deficient in protein, fat and minerals when their pups were 10 days old. At weaning (3 weeks of age), pups were placed on either a standard control diet (CD) or continued on RBD. At 4 weeks of age, weanlings were given drug or placebo (0.1 mg/kg formulated in PBS (vehicle)) once a day subcutaneously for 2-3 weeks. Bodyweight and food consumption were measured twice weekly. Stool was collected at weaning, 6 weeks of age, and 8 weeks of age for calorimetry and microbiome. Oral FITC-dextran was used as a measurement of barrier function. At 6 weeks of age, mice were euthanized, and jejunal tissue was collected for morphology, immunohistochemistry, and for chamber analysis of transmucosal resistance and permeability.

[5] = test system: mouse model of chronic colitis; assay: Chronic DSS-induced colitis in C57BL/6 mice (GLP2-2G-1-EX4-L5A); assay type: in vivo; details: 0.1 and 0.3 mg/kg SC QD 7 days, teduglutide 0.3 mg/kg SC QD
Description: Animals were treated daily for 7 days during the last DSS-induction cycle. Treatment was administered either subcutaneously (S) or intraperitoneally (IP) either once daily (QD) or twice daily (BID).
Bodyweight was monitored 3 times a week. Pharmacokinetic collection occurred 3 and 4 days prior to necropsy. At day 33, a necropsy was performed, and measurements were taken. These measurement included collecting terminal bleed; dissecting out the small intestine; measuring the length and weight of the small intestine; and recording the length and weight of the empty large intestine.

EC50 (cyno monkey GLP2R): 9 pM
IC50 (mouse GLP2R): 70 pM
SMILES: CC[C@H](C)[C@H](NC(=O)[C@H](Cc1ccccc1)NC(=O)[C@H](CC(=O)O)NC(=O)[C@H](CCCNC(=N)N)NC(=O)[C@H](C)NC(=O)[C@H](C)NC(=O)[C@H](CC(C)C)NC(=O)[C@H](CC(N)=O)NC(=O)[C@H](CC(=O)O)NC(=O)[C@H](CC(C)C)NC(=O)[C@@H](NC(=O)[C@@H](NC(=O)[C@H](CC(N)=O)NC(=O)[C@H](CCSC)NC(=O)[C@H](CCC(=O)O)NC(=O)[C@H](CC(=O)O)NC(=O)[C@H](CO)NC(=O)[C@H](Cc1ccccc1)NC(=O)[C@H](CO)NC(=O)CNC(=O)[C@H](CC(=O)O)NC(=O)CNC(=O)[C@@H](N)Cc1c[nH]cn1)[C@@H](C)O)[C@@H](C)CC)C(=O)N[C@@H](CC(N)=O)C(=O)N[C@@H](Cc1c[nH]c2ccccc12)C(=O)N[C@@H](CC(C)C)C(=O)N[C@H](C(=O)N[C@@H](CCC(N)=O)C(=O)N[C@H](C(=O)N[C@@H](CCCCN)C(=O)N[C@H](C(=O)N[C@H](C(=O)N[C@@H](CC(=O)O)C(=O)O)[C@@H](C)O)[C@@H](C)CC)[C@@H](C)O)[C@@H](C)CC [Teduglutide, teduglutide, reference compound]
colon length ([1]; doses of 0.1 mg/kg and higher, vs group B): significantly increased
small intestine length ([1]; doses of 0.1 mg/kg and higher, vs untreated): significant increases
colon weight ([1]; doses of 0.3 mg/kg or higher, vs untreated): increased
bodyweight over time ([2]; 3% DSS 5 days, daily treatment 11 days, K5 0.1-1 mg/kg SC, teduglutide 0.5 mg/kg SC, cyclosporin 20 mg/kg IP): did not exhibit significant changes in bodyweight
small intestine length and weight ([2]; groups C-F vs untreated mice): significantly increased
colon length ([2]; groups D-F (K5 0.3, 1 mg/kg; teduglutide 0.5 mg/kg) vs group B): significantly increased
villus height ([2]; jejunum, groups C-F vs untreated mice (groups A-B)): significant increase
detectability in plasma after dosing [3]: not detectable after 3 hours post treatment
intestinal permeability (FITC-dextran) ([4]; CD females vs untreated): significant decreases in permeability
small intestine wet body weight/body weight ([4]; CD females vs untreated): significant increase
crypt depths ([4]; CD males vs untreated): longer crypt depths
intestinal permeability (FITC-dextran) ([4]; CD males vs untreated): trend towards decreased permeability
small intestine wet body weight/body weight ([4]; CD males vs untreated): significant increase
villus heights ([4]; CD males vs untreated): significantly longer villus heights
intestinal permeability (FITC-dextran) ([4]; RBD females or RBD males vs untreated): did not significantly affect the permeability
small intestine wet body weight/body weight ([4]; RBD males vs untreated): significant increase
length of the small intestine ([4]; animals weaned to CD and to RBD diet, vs untreated): significant increase
weight gain ([4]; male and female RBD mice weaned to CD, 0.1 mg/kg SC once a day): trends towards greater weight gain
weight ([4]; male and female mice weaned to RBD, 0.1 mg/kg SC once a day): trends towards worsening weight
bodyweight loss [5]: did not show the same loss in percent of bodyweight
